Converted amounts (≈) assume the structure as drawn. The source made the active and inactive calls. The rule behind the calls is not given here.
Key:
Helicoverpa armigera [1] = experiment: Insecticidal activity against second-instar larval stage of Helicoverpa armigera fed with artificial diet containing compound assessed as growth inhibition after 7 days; assay type: functional, organism-based; conditions: for EC50: 168 h
Spodoptera litura [2] = experiment: Insecticidal activity against second-instar larval stage of Spodoptera litura fed with artificial diet containing compound assessed as growth inhibition after 7 days; assay type: functional, organism-based; conditions: for EC50: 168 h
Spodoptera litura [3] = experiment: Antifeedant activity against third-instar larval stage of Spodoptera litura fed with artificial diet containing compound assessed as relative consumption rate at 4.38 mg/ml after 3 days (reference value: 2.13 +/- 0.18 mg/mg/day); assay type: functional
Helicoverpa armigera [4] = experiment: Antifeedant activity against third-instar larval stage of Helicoverpa armigera fed with artificial diet containing compound assessed as efficiency index of ingested food at 5.38 mg/ml after 3 days (reference value: 52%); assay type: functional
Helicoverpa armigera [5] = experiment: Insecticidal activity against second-instar larval stage of Helicoverpa armigera fed with artificial diet containing compound assessed as mortality after 7 days; assay type: functional; conditions: 168 h
Spodoptera litura [6] = experiment: Antifeedant activity against third-instar larval stage of Spodoptera litura fed with artificial diet containing compound assessed as efficiency index of ingested food at 4.38 mg/ml after 3 days (reference value: 64.5%); assay type: functional
Spodoptera litura [7] = experiment: Insecticidal activity against second-instar larval stage of Spodoptera litura assessed as increase in mortality applied as spray at 1 to 10 mg/ml after 72 hr; assay type: functional, organism-based
Spodoptera litura [8] = experiment: Antifeedant activity against third-instar larval stage of Spodoptera litura fed with artificial diet containing compound assessed as relative growth rate at 4.38 mg/ml after 3 days (reference value: 1.37 +/- 0.12 mg/mg/day); assay type: functional
Helicoverpa armigera [9] = experiment: Insecticidal activity against second-instar larval stage of Helicoverpa armigera assessed as increase in mortality applied as spray at 1 to 10 mg/ml after 72 hr; assay type: functional, organism-based
Helicoverpa armigera [10] = experiment: Antifeedant activity against third-instar larval stage of Helicoverpa armigera fed with artificial diet containing compound assessed as relative growth rate at 5.38 mg/ml after 3 days (reference value: 0.97 +/- 0.13 mg/mg/day); assay type: functional
Spodoptera litura [11] = experiment: Insecticidal activity against second-instar larval stage of Spodoptera litura fed with artificial diet containing compound assessed as mortality after 7 days; assay type: functional; conditions: 168 h
Helicoverpa armigera [12] = experiment: Antifeedant activity against third-instar larval stage of Helicoverpa armigera fed with artificial diet containing compound assessed as relative consumption rate at 5.38 mg/ml after 3 days (reference value: 1.88 +/- 0.14 mg/mg/day); assay type: functional

## CCCCCCCC(=O)OCCCCCOC(=O)CCCCCCC [PENTANE-1,5-DIOCTANOATE]
Helicoverpa armigera [1]
  growth inhibition (GI): Dose-dependent effect
  EC50: 4670 µg/mL (≈ 13.1 mM)
Spodoptera litura [2]
  growth inhibition (GI): Dose-dependent effect
  EC50: 4760 µg/mL (≈ 13.4 mM)

## CC(C)C(=O)OCCOC(=O)C(C)C [ETHYLENE GLYCOL DIISOBUTANOATE]
Helicoverpa armigera [1]
  growth inhibition (GI): Dose-dependent effect
  EC50: 5880 µg/mL (≈ 29.1 mM)
Spodoptera litura [2]
  growth inhibition (GI): Dose-dependent effect
  EC50: 5000 µg/mL (≈ 24.7 mM)

## CCCCCC(=O)OCCOC(=O)CCCCC [ETHYLENE GLYCOL DIHEXANOATE]
Helicoverpa armigera [1]
  growth inhibition (GI): Dose-dependent effect
  EC50: 2160 µg/mL (≈ 8.36 mM)
Spodoptera litura [2]
  growth inhibition (GI): Dose-dependent effect
  EC50: 1780 µg/mL (≈ 6.89 mM)

## CCCC(CC)C(=O)OC1CCC(OC2CCC(OC(=O)C(CC)CCC)CC2)CC1 (stereo not drawn) [4-(4-O-(2-ETHYL)HEXANOYLCYCLOHEXYLOXY)-CYCLOHEXYL-(2-ETHYL)HEXANOATE]
Helicoverpa armigera [1]
  growth inhibition (GI): Dose-dependent effect
  EC50: 7000 µg/mL (≈ 16 mM)
Spodoptera litura [2]
  growth inhibition (GI): Dose-dependent effect
  EC50: 6270 µg/mL (≈ 14.3 mM)

## CCCC(=O)OCCOCCOC(=O)CCC [DIETHYLENE GLYCOL DIBUTANOATE]
Helicoverpa armigera [1]
  growth inhibition (GI): Dose-dependent effect
  EC50: 2890 µg/mL (≈ 11.7 mM)
Spodoptera litura [2]
  growth inhibition (GI): Dose-dependent effect
  EC50: 1760 µg/mL (≈ 7.15 mM)

## CCCCC(=O)OCC(C)OC(=O)CCCC (stereo not drawn)
Helicoverpa armigera [1]
  growth inhibition (GI): Dose-dependent effect
  EC50: 5540 µg/mL (≈ 22.7 mM)
Spodoptera litura [2]
  growth inhibition (GI): Dose-dependent effect
  EC50: 4240 µg/mL (≈ 17.4 mM)

## CCCCCC(=O)OCC(C)COC(=O)CCCCC
Helicoverpa armigera [1]
  growth inhibition (GI): Dose-dependent effect
  EC50: 7760 µg/mL (≈ 27.1 mM)
Spodoptera litura [2]
  growth inhibition (GI): Dose-dependent effect
  EC50: 7580 µg/mL (≈ 26.5 mM)

## CCCCC(=O)OCC(C)COC(=O)CCCC
Helicoverpa armigera [1]
  growth inhibition (GI): Dose-dependent effect
  EC50: 7840 µg/mL (≈ 30.3 mM)
Spodoptera litura [2]
  growth inhibition (GI): Dose-dependent effect
  EC50: 7020 µg/mL (≈ 27.2 mM)

## CC(C)C(=O)OCCOCCOC(=O)C(C)C [DIETHYLENE GLYCOL DIISOBUTANOATE]
Helicoverpa armigera [1]
  growth inhibition (GI): Dose-dependent effect
  EC50: 6450 µg/mL (≈ 26.2 mM)
Spodoptera litura [2]
  growth inhibition (GI): Dose-dependent effect
  EC50: 5120 µg/mL (≈ 20.8 mM)

## CCCCCC(=O)OCC(C)OC(=O)CCCCC (stereo not drawn)
Helicoverpa armigera [1]
  growth inhibition (GI): Dose-dependent effect
  EC50: 5260 µg/mL (≈ 19.3 mM)
Spodoptera litura [2]
  growth inhibition (GI): Dose-dependent effect
  EC50: 3810 µg/mL (≈ 14 mM)

## CC(C)C(=O)OCCCCCOC(=O)C(C)C [PENTANE-1,5-DI-ISOBUTANOATE]
Helicoverpa armigera [1]
  growth inhibition (GI): Dose-dependent effect
  EC50: 7580 µg/mL (≈ 31 mM)
Spodoptera litura [2]
  growth inhibition (GI): Dose-dependent effect
  EC50: 7660 µg/mL (≈ 31.4 mM)

## CCCC(=O)OCCCCCOC(=O)CCC [PENTANE-1,5-DIBUTANOATE]
Helicoverpa armigera [1]
  growth inhibition (GI): Dose-dependent effect
  EC50: 4500 µg/mL (≈ 18.4 mM)
Spodoptera litura [2]
  growth inhibition (GI): Dose-dependent effect
  EC50: 4860 µg/mL (≈ 19.9 mM)

## CCCCCCCC(=O)OC1CCC(OC2CCC(OC(=O)CCCCCCC)CC2)CC1 (stereo not drawn) [4-(4-O-OCTANOYLCYCLOHEXYLOXY)-CYCLOHEXYL OCTANOATE]
Helicoverpa armigera [1]
  growth inhibition (GI): Dose-dependent effect
  EC50: 6340 µg/mL (≈ 13.6 mM)
Spodoptera litura [2]
  growth inhibition (GI): Dose-dependent effect
  EC50: 5760 µg/mL (≈ 12.3 mM)

## CCCCCC(=O)OCCOCCOC(=O)CCCCC [DIETHYLENE GLYCOL DIHEXANOATE]
Helicoverpa armigera [1]
  growth inhibition (GI): Dose-dependent effect
  EC50: 3900 µg/mL (≈ 12.9 mM)
Spodoptera litura [2]
  growth inhibition (GI): Dose-dependent effect
  EC50: 1940 µg/mL (≈ 6.42 mM)

## CCCCCC(=O)OCCCCCOC(=O)CCCCC [PENTANE-1,5-DIHEXANOATE]
Helicoverpa armigera [1]
  growth inhibition (GI): Dose-dependent effect
  EC50: 8050 µg/mL (≈ 26.8 mM)
Spodoptera litura [2]
  growth inhibition (GI): Dose-dependent effect
  EC50: 7510 µg/mL (≈ 25 mM)

## CCCC(=O)OC1CCC(OC2CCC(OC(=O)CCC)CC2)CC1 (stereo not drawn) [4-(4-O-BUTANOYLCYCLOHEXYLOXY)-CYCLOHEXYL BUTANOATE]
Helicoverpa armigera [1]
  growth inhibition (GI): Dose-dependent effect
  EC50: 7230 µg/mL (≈ 20.4 mM)
Spodoptera litura [2]
  growth inhibition (GI): Dose-dependent effect
  EC50: 6120 µg/mL (≈ 17.3 mM)

## CC(COC(=O)C(C)C)COC(=O)C(C)C
Helicoverpa armigera [1]
  growth inhibition (GI): Dose-dependent effect
  EC50: 8170 µg/mL (≈ 35.5 mM)
Spodoptera litura [2]
  growth inhibition (GI): Dose-dependent effect
  EC50: 7540 µg/mL (≈ 32.7 mM)

## CCCCC(=O)OC1CCC(OC2CCC(OC(=O)CCCC)CC2)CC1 (stereo not drawn) [4-(4-O-PENTANOYLCYCLOHEXYLOXY)-CYCLOHEXYL PENTANOATE]
Helicoverpa armigera [1]
  growth inhibition (GI): Dose-dependent effect
  EC50: 8240 µg/mL (≈ 21.5 mM)
Spodoptera litura [2]
  growth inhibition (GI): Dose-dependent effect
  EC50: 7890 µg/mL (≈ 20.6 mM)

## CCCC(CC)C(=O)OCCOC(=O)C(CC)CCC (stereo not drawn)
Helicoverpa armigera [1]
  growth inhibition (GI): Dose-dependent effect
  EC50: 2440 µg/mL (≈ 8.52 mM)
Spodoptera litura [2]
  growth inhibition (GI): Dose-dependent effect
  EC50: 2800 µg/mL (≈ 9.78 mM)

## CCCC(CC)C(=O)OCC(C)OC(=O)C(CC)CCC (stereo not drawn)
Helicoverpa armigera [1]
  growth inhibition (GI): Dose-dependent effect
  EC50: 4860 µg/mL (≈ 16.2 mM)
Spodoptera litura [2]
  growth inhibition (GI): Dose-dependent effect
  EC50: 3760 µg/mL (≈ 12.5 mM)

## CCCC(=O)OCC(C)COC(=O)CCC
Helicoverpa armigera [1]
  growth inhibition (GI): Dose-dependent effect
  EC50: 4230 µg/mL (≈ 18.4 mM)
Spodoptera litura [2]
  growth inhibition (GI): Dose-dependent effect
  EC50: 4360 µg/mL (≈ 18.9 mM)

## CCCCCCCC(=O)OCCOCCOC(=O)CCCCCCC [DIETHYLENE GLYCOL DIOCTANOATE]
Helicoverpa armigera [1]
  growth inhibition (GI): Dose-dependent effect
  EC50: 2880 µg/mL (≈ 8.03 mM)
Spodoptera litura [2]
  growth inhibition (GI): Dose-dependent effect
  EC50: 1540 µg/mL (≈ 4.3 mM)

## CCCCCCCC(=O)OCC(C)COC(=O)CCCCCCC
Helicoverpa armigera [1]
  growth inhibition (GI): Dose-dependent effect
  EC50: 4540 µg/mL (≈ 13.3 mM)
Spodoptera litura [2]
  growth inhibition (GI): Dose-dependent effect
  EC50: 6210 µg/mL (≈ 18.1 mM)

## CC(C)C(=O)OC1CCC(OC2CCC(OC(=O)C(C)C)CC2)CC1 (stereo not drawn) [4-(4-O-ISOBUTANOYLCYCLOHEXYLOXY)-CYCLOHEXYL ISOBUTANOATE]
Helicoverpa armigera [1]
  growth inhibition (GI): Dose-dependent effect
  EC50: 8110 µg/mL (≈ 22.9 mM)
Spodoptera litura [2]
  growth inhibition (GI): Dose-dependent effect
  EC50: 7860 µg/mL (≈ 22.2 mM)

## CCCCC(=O)OCCOCCOCCOC(=O)CCCC [TRIETHYLENE GLYCOL DIPENTANOATE]
Helicoverpa armigera [1]
  growth inhibition (GI): Dose-dependent effect
  EC50: 2090 µg/mL (≈ 6.56 mM)
Spodoptera litura [2]
  growth inhibition (GI): Dose-dependent effect
  EC50: 1540 µg/mL (≈ 4.84 mM)

## CCCCC(=O)OCCOCCOC(=O)CCCC [DIETHYLENE GLYCOL DIPENTANOATE]
Helicoverpa armigera [1]
  growth inhibition (GI): Dose-dependent effect
  EC50: 3870 µg/mL (≈ 14.1 mM)
Spodoptera litura [2]
  growth inhibition (GI): Dose-dependent effect
  EC50: 1880 µg/mL (≈ 6.85 mM)

## CCCC(=O)OCCOCCOCCOC(=O)CCC [TRIETHYLENE GLYCOL DIBUTANOATE]
Spodoptera litura [3]
  Activity: 2.06 mg/mg/day
Helicoverpa armigera [4]
  ECI: 32.7%
Helicoverpa armigera [1]
  growth inhibition (GI): Dose-dependent effect
  EC50: 2120 µg/mL (≈ 7.3 mM)
Helicoverpa armigera [5]
  LC50: 2000 µg/mL (≈ 6.89 mM)
Spodoptera litura [6]
  ECI: 61%
Spodoptera litura [7]
  Activity: Active
Spodoptera litura [8]
  Activity: 0.77 mg/mg/day
Helicoverpa armigera [9]
  Activity: Active
Spodoptera litura [2]
  growth inhibition (GI): Dose-dependent effect
  EC50: 1640 µg/mL (≈ 5.65 mM)
Helicoverpa armigera [10]
  Activity: 0.54 mg/mg/day
Spodoptera litura [11]
  LC50: 2000 µg/mL (≈ 6.89 mM)
Helicoverpa armigera [12]
  Activity: 1.67 mg/mg/day
